The values that follow come from PMC11678425, “(-)-Syringaresinol Exerts an Antidepressant-like Activity in Mice by Noncompetitive Inhibition of the Serotonin Transporter” (Pharmaceuticals, 2024).

The structures appear in SMILES notation.

Experiment [1] concerns SERT. To be noted: cited from earlier work.
Experiment [2] concerns SERT Y107C/C109A. Nature of the experiment: Cysteine accessibility, extracellular pathway: MTSET reactivity with Y107C/C109A. It is filed as cell-based. Particulars: 10 μM ligand, compared with the control (MTSET alone).
For experiment [3], the system named is SERT S277C/X5C. Nature of the experiment: Cysteine accessibility, cytoplasmic pathway: MTSEA reactivity with S277C/X5C. It is filed as cell-based. To be noted: 10 μM ligand, digitonin-permeabilized cells, compared with the control.
The target in experiment [4] is T1, hSERT WT (Homo sapiens, UniProt P31645).
T1 construct: forward and reverse primers were used to amplify a full-length hSERT; expressed in transfected cells; host or cells: HeLa cells (CCL-2), transient, pcDNA3.1
Nature of the experiment: APP^+ uptake, hSERT WT. To be noted: WT. Format: cell-based.

Experiment [5] has as its target T2, hSERT Q111N (Homo sapiens, UniProt P31645, Q111N).
T2 construct: forward and reverse primers were used to amplify a full-length hSERT; expressed in transfected cells; host or cells: HeLa cells, transient, pcDNA3.1
Nature of the experiment: APP^+ uptake, hSERT Q111N. Format: cell-based. Particulars: S2 site mutant.

For experiment [6], the target named is T3, hSERT I327A (Homo sapiens, UniProt P31645, I327A).
T3 construct: forward and reverse primers were used to amplify a full-length hSERT; expressed in transfected cells; host or cells: HeLa cells, transient, pcDNA3.1
Description: APP^+ uptake, hSERT I327A. Format: cell-based. Particulars: S2 site mutant.

The target in experiment [7] is T4, hSERT D328A (Homo sapiens, UniProt P31645, D328A).
T4 construct: forward and reverse primers were used to amplify a full-length hSERT; expressed in transfected cells; host or cells: HeLa cells, transient, pcDNA3.1
Description: APP^+ uptake, hSERT D328A. Particulars: S2 site mutant. Format: cell-based.

Experiment [8] has as its target T5, hSERT E493N (Homo sapiens, UniProt P31645, E493N).
T5 construct: forward and reverse primers were used to amplify a full-length hSERT; expressed in transfected cells; host or cells: HeLa cells, transient, pcDNA3.1
Nature of the experiment: APP^+ uptake, hSERT E493N. It is filed as cell-based. To be noted: S2 site mutant.

The target in experiment [9] is T6, hSERT E494Q (Homo sapiens, UniProt P31645, E494Q).
T6 construct: forward and reverse primers were used to amplify a full-length hSERT; expressed in transfected cells; host or cells: HeLa cells, transient, pcDNA3.1
Nature of the experiment: APP^+ uptake, hSERT E494Q. It is filed as cell-based. To be noted: S2 site mutant.

The target of experiment [10] is T7, hSERT T497A (Homo sapiens, UniProt P31645, T497A).
T7 construct: forward and reverse primers were used to amplify a full-length hSERT; expressed in transfected cells; host or cells: HeLa cells, transient, pcDNA3.1
Description: APP^+ uptake, hSERT T497A. It is filed as cell-based. To be noted: S2 site mutant.

Experiment [11] has as its target T8, hSERT G498T (Homo sapiens, UniProt P31645, G498T).
T8 construct: forward and reverse primers were used to amplify a full-length hSERT; expressed in transfected cells; host or cells: HeLa cells, transient, pcDNA3.1
Nature of the experiment: APP^+ uptake, hSERT G498T. Format: cell-based. Particulars: S2 site mutant.

Experiment [12] has as its target T9, hSERT P499G (Homo sapiens, UniProt P31645, P499G).
T9 construct: forward and reverse primers were used to amplify a full-length hSERT; expressed in transfected cells; host or cells: HeLa cells, transient, pcDNA3.1
Description: APP^+ uptake, hSERT P499G. It is filed as cell-based. Particulars: S2 site mutant.

For experiment [13], the target named is T10, hSERT F556A (Homo sapiens, UniProt P31645, F556A).
T10 construct: forward and reverse primers were used to amplify a full-length hSERT; expressed in transfected cells; host or cells: HeLa cells, transient, pcDNA3.1
Description: APP^+ uptake, hSERT F556A. It is filed as cell-based. Particulars: S2 site mutant.

Experiment [14] deals with T11, hSERT S559A (Homo sapiens, UniProt P31645, S559A).
T11 construct: forward and reverse primers were used to amplify a full-length hSERT; expressed in transfected cells; host or cells: HeLa cells, transient, pcDNA3.1
Description: APP^+ uptake, hSERT S559A. It is filed as cell-based. To be noted: S2 site mutant.

Experiment [15] deals with T12, hSERT P560G (Homo sapiens, UniProt P31645, P560G).
T12 construct: forward and reverse primers were used to amplify a full-length hSERT; expressed in transfected cells; host or cells: HeLa cells, transient, pcDNA3.1
Nature of the experiment: APP^+ uptake, hSERT P560G. It is filed as cell-based. Particulars: S2 site mutant.

The target of experiment [16] is T13, hSERT P561G (Homo sapiens, UniProt P31645, P561G).
T13 construct: forward and reverse primers were used to amplify a full-length hSERT; expressed in transfected cells; host or cells: HeLa
Nature of the experiment: APP^+ uptake, hSERT P561G. Format: cell-based. Particulars: S2 site mutant.

Experiment [17] has as its target T14, hSERT Q562N (Homo sapiens, UniProt P31645, Q562N).
T14 construct: forward and reverse primers were used to amplify a full-length hSERT; expressed in transfected cells; host or cells: HeLa
Description: APP^+ uptake, hSERT Q562N. It is filed as cell-based. To be noted: S2 site mutant.

Experiment [18] has as its target T15, hSERT L563A (Homo sapiens, UniProt P31645, L563A).
T15 construct: forward and reverse primers were used to amplify a full-length hSERT; expressed in transfected cells; host or cells: HeLa
Description: APP^+ uptake, hSERT L563A. Particulars: S2 site mutant. It is filed as cell-based.

For experiment [19], the target named is T16, hSERT R564A (Homo sapiens, UniProt P31645, R564A).
T16 construct: forward and reverse primers were used to amplify a full-length hSERT; expressed in transfected cells; host or cells: HeLa
Description: APP^+ uptake, hSERT R564A. It is filed as cell-based. To be noted: S2 site mutant.

Experiment [20] has as its target T17, hSERT L565A (Homo sapiens, UniProt P31645, L565A).
T17 construct: forward and reverse primers were used to amplify a full-length hSERT; expressed in transfected cells; host or cells: HeLa
Nature of the experiment: APP^+ uptake, hSERT L565A. It is filed as cell-based. To be noted: S2 site mutant.

The target of experiment [21] is T18, hSERT Y579A (Homo sapiens, UniProt P31645, Y579A).
T18 construct: forward and reverse primers were used to amplify a full-length hSERT; expressed in transfected cells; host or cells: HeLa
Description: APP^+ uptake, hSERT Y579A. Format: cell-based. To be noted: S2 site mutant.

In experiment [22] the target is T19, hSERT T583A (Homo sapiens, UniProt P31645, T583A).
T19 construct: forward and reverse primers were used to amplify a full-length hSERT; expressed in transfected cells; host or cells: HeLa
Description: APP^+ uptake, hSERT T583A. It is filed as cell-based. To be noted: S2 site mutant.

As to `COc1cc(C2OCC3C(c4cc(OC)c(OC5OC(CO)C(O)C(O)C5OC5OCC(O)(CO)C5O)c(OC)c4)OCC23)cc(OC)c1O` (single isomer, unassigned; (-)) [SAG, (-)-syringaresinol-4-O-D-apiofuranosyl-(1→2)-D-glucopyranoside], in experiment [1], the “inhibitory potency against SERT” value was “a few micromolar range” and the “mode of inhibition of SERT activity” value is “noncompetitively inhibit”.
As to `COc1cc(C2OCC3C(c4cc(OC)c(O[C@@H]5O[C@H](CO)[C@@H](O)[C@H](O)[C@H]5O)c(OC)c4)OCC23)cc(OC)c1O[C@@H]1O[C@H](CO)[C@@H](O)[C@H](O)[C@H]1O` (single isomer, unassigned; (-)) [SBG, (-)-syringaresinol-4,4′-bis-O-β-D-glucopyranoside], in experiment [1], the “inhibitory potency against SERT” value is “a few micromolar range” and the “mode of inhibition of SERT activity” value is reported as “noncompetitively inhibit”.
Regarding `NCCc1c[nH]c2ccc(O)cc12` [5-HT, 5-hydroxytryptamine, reference compound], the “rate constant of MTSET reactivity with Y107C/C109A” value in [2] is “decreased”. Moreover, the “rate constant of MTSEA reactivity with S277C/X5C” value in experiment [3] is “increased”.
Turning to `CN(C)c1ccc(-c2cc[n+](C)cc2)cc1` [APP^+, 4-(4-(dimethylamino)phenyl)-1-methylpyridinium], the Vmax in experiment [4] (APP^+ transport) amounted to 22.98 ± 0.92 AFU/min; in experiment [5] (APP^+ transport) it was 26.93 ± 1.35 AFU/min; in [6] (APP^+ transport), 26.54 ± 1.43 AFU/min; in [7] (APP^+ transport), 27.83 ± 0.85 AFU/min; in experiment [8] (APP^+ transport) it was 25.48 ± 0.96 AFU/min; in [9] (APP^+ transport) it was 31.12 ± 0.89 AFU/min. Also, the Vmax in experiment [10] (APP^+ transport) is on record as 26.63 ± 1.09 AFU/min; in experiment [11] (APP^+ transport) it was 26.30 ± 1.52 AFU/min; in experiment [12] (APP^+ transport), 27.28 ± 0.43 AFU/min; in experiment [13] (APP^+ transport), 26.84 ± 1.74 AFU/min; in experiment [14] (APP^+ transport) it was 23.68 ± 0.57 AFU/min; in experiment [15] (APP^+ transport), 21.70 ± 0.90 AFU/min. Also, the Vmax in experiment [16] (APP^+ transport) was 26.55 ± 1.08 AFU/min; in experiment [17] (APP^+ transport), 23.57 ± 1.49 AFU/min; in [18] (APP^+ transport), 23.53 ± 0.45 AFU/min; in experiment [19] (APP^+ transport), 27.10 ± 0.08 AFU/min; in experiment [20] (APP^+ transport) it was 21.13 ± 0.16 AFU/min; in [21] (APP^+ transport), 23.89 ± 2.33 AFU/min. In addition, the Vmax in experiment [22] (APP^+ transport) was determined as 26.97 ± 0.26 AFU/min. In addition, the Km in experiment [4] was determined as 2.24 ± 0.45 µM; in experiment [5] it was 3.69 ± 0.36 µM; in experiment [6], 4.27 ± 0.79 µM; in experiment [7], 3.81 ± 0.27 µM; in [8], 4.83 ± 0.19 µM; in [9], 6.83 ± 0.86 µM. In addition, the Km in [10] was 3.85 ± 0.06 µM; in experiment [11], 3.75 ± 0.32 µM; in experiment [12] it was 3.72 ± 0.45 µM; in experiment [13], 4.69 ± 1.02 µM; in [14] it was 3.82 ± 0.55 µM; in experiment [15], 1.85 ± 0.16 µM. Further, the Km was 2.73 ± 0.09 µM in experiment [16]; 1.85 ± 0.36 µM in experiment [17]; 1.53 ± 0.07 µM in [18]; 3.41 ± 0.12 µM in experiment [19]; 0.68 ± 0.04 µM in [20]; 2.81 ± 0.08 µM in experiment [21]. The Km in experiment [22] amounted to 3.68 ± 0.15 µM.
